Reference: paper PMC12396409, “Screening and hit evaluation of a microbial metabolite library against the pathogenic Plasmodium falciparum and Toxoplasma gondii parasites” (International Journal for Parasitology: Drugs and Drug …, 2025)
Where two headings read alike, the source gives them in different places.

Columns and labels:
[1] = test system: P. falciparum 3D7 parasites; assay: P. falciparum growth inhibition assay, 1-cycle (72 h treatment), SYBR DNA staining (library screen at 2 μg/mL and dose-response); type: cell-based, Plasmodium falciparum; details: for IC50: 3D7, 72 h treatment, mean ± S.D., n ≥ 3, read-out: IC50 (μM), P. falciparum
[2] = test system: P. falciparum 3D7 parasites; assay: P. falciparum growth inhibition assay, 2-cycle (120 h treatment), delayed-death screen and dose-response; type: cell-based, Plasmodium falciparum; details: for activity at 2 µg/mL: Plasmodium falciparum
[3] = test system: T. gondii RH strain (RH-Tub-eYFP) tachyzoites; assay: microbe, parasite or virus in culture; type: cell-based, Toxoplasma gondii; details: 72 h; for percent parasite growth at 2 µg/mL: Toxoplasma gondii
[4] = P. falciparum, 72 h, screen at 2 μg/mL, replicate 1
[5] = P. falciparum, 72 h, screen at 2 μg/mL, replicate 2
[6] = P. falciparum, 120 h, screen at 2 μg/mL, replicate 1
[7] = P. falciparum, 120 h, screen at 2 μg/mL, replicate 2
[8] = T. gondii, screen at 2 μg/mL, replicate 1
[9] = T. gondii, screen at 2 μg/mL, replicate 2
[10] = library screen at 2 μg/mL, 72 h, % growth, replicate 1
[11] = library screen at 2 μg/mL, 72 h, % growth, replicate 2
[12] = library screen at 2 μg/mL, 120 h, % growth, replicate 1
[13] = library screen at 2 μg/mL, 120 h, % growth, replicate 2
[14] = library screen at 2 μg/mL, % growth, replicate 1
[15] = library screen at 2 μg/mL, % growth, replicate 2
[16] = T. gondii, parasite screen 2 μg/mL, % growth, replicate 1, read-out: Tg_72h_%Growth_Rep1
[17] = T. gondii, parasite screen 2 μg/mL, % growth, replicate 2, read-out: Tg_72h_%Growth_Rep2

Structure (SMILES) | Pf_72h_%Growth_Rep1 [1, 4] [%] | Pf_72h_%Growth_Rep2 [1, 5] [%] | Pf_120h_%Growth_Rep1 [2, 6] [%] | Pf_120h_%Growth_Rep2 [2, 7] [%] | Tg_72h_%Growth_Rep1 [3, 8] [%] | Tg_72h_%Growth_Rep2 [3, 9] [%] | Pf_72h_%Growth_Rep1 [1, 10] [%] | Pf_72h_%Growth_Rep2 [1, 11] [%] | Pf_120h_%Growth_Rep1 [2, 12] [%] | Pf_120h_%Growth_Rep2 [2, 13] [%] | Tg_72h_%Growth_Rep1 [3, 14] [%] | Tg_72h_%Growth_Rep2 [3, 15] [%] | other results
O=C1N[C@@H](Cc2ccccc2)C(=O)N2CCC[C@@H]12 [Cyclo(L-Phe-L-Pro)] | 92.82 | 90.35 | 82.75 | 99.85 | 128.14 | 102.31 |  |  |  |  |  |  | 
CCCCCCCCCC(=O)N[C@H]1CCOC1=O [Decanoyl-L-homoserine lactone] | 85.38 | 85.76 | 108.94 | 93.89 | 132.23 | 94.38 |  |  |  |  |  |  | 
CO[C@H]1C[C@H](O[C@H]2[C@H](C)O[C@@H](O[C@@H]3/C(C)=C/C[C@@H]4C[C@@H](C[C@]5(C=C[C@H](C)[C@@H](C6CCCCC6)O5)O4)OC(=O)[C@H]4C=C(C)[C@@H](O)[C@H]5OC/C(=C\C=C\[C@@H]3C)[C@@]45O)C[C@@H]2OC)O[C@@H](C)[C@@H]1O [Doramectin, epi-] |  |  |  |  |  |  | 8.06 | 18.63 | -3.39 | 23.35 | 72.64 | 83.42 | 
CC1(C)C[C@]23[C@@H]4COC(=O)[C@H]2CC[C@H]1[C@@H]3CC4=O [Quadrone] |  |  |  |  |  |  |  |  |  |  |  |  | activity at 2 µg/mL ([1]; Plasmodium falciparum, 3D7, P. falciparum, 72 h, parasite screen 2 μg/mL, % growth, replicate 1, read-out: Pf_72h_%Growth_Rep1): 19%; activity at 2 µg/mL ([1]; Plasmodium falciparum, 3D7, P. falciparum, 72 h, parasite screen 2 μg/mL, % growth, replicate 2, read-out: Pf_72h_%Growth_Rep2): 18.9%; activity at 2 µg/mL ([2]; 3D7, P. falciparum, 120 h, parasite screen 2 μg/mL, % growth, replicate 1, read-out: Pf_120h_%Growth_Rep1): 7%; activity at 2 µg/mL ([2]; 3D7, P. falciparum, 120 h, parasite screen 2 μg/mL, % growth, replicate 2, read-out: Pf_120h_%Growth_Rep2): 13.5%; percent parasite growth at 2 µg/mL [3, 16]: 48.4%; percent parasite growth at 2 µg/mL [3, 17]: 61.5%
COc1cc(C)c2c(c1)O[C@]1(C)Cc3cc4c(c(O)c3[C@H]2O1)C(=O)c1c(O)c(Cl)c(O)c(Cl)c1C4(C)C [Bischloroanthrabenzoxocinone] |  |  |  |  |  |  | 16.72 | 45.58 | 23.08 | 23.09 | 50.70 | 75.56 | 
COc1cc(/C=C/C(=O)O)cc(OC)c1O [Sinapic acid] |  |  |  |  |  |  |  |  |  |  |  |  | Mean ([1]; P. falciparum, 72 h, 2 μg/mL, mean of both replicates, growth (% of control)): 45.98; Pf_72h_%Growth_Rep1 ([1]; P. falciparum, 72 h, parasite screen 2 μg/mL, % growth, replicate 1): 90.37%; Pf_72h_%Growth_Rep2 ([1]; P. falciparum, 72 h, parasite screen 2 μg/mL, % growth, replicate 2): 1.58%; Pf_120h_%Growth_Rep1 ([2]; P. falciparum, 120 h, parasite screen 2 μg/mL, % growth, replicate 1): 115.97%; Pf_120h_%Growth_Rep2 ([2]; P. falciparum, 120 h, parasite screen 2 μg/mL, % growth, replicate 2): -9.79%; Tg_72h_%Growth_Rep1 ([3]; T. gondii, parasite screen 2 μg/mL, % growth, replicate 1): 101.84%; Tg_72h_%Growth_Rep2 ([3]; T. gondii, parasite screen 2 μg/mL, % growth, replicate 2): 75.80%
CC(C)(O)[C@H]1O[C@H]2CC[C@@]3(C)[C@@](O)(CC[C@H]4Cc5c([nH]c6ccccc56)[C@@]43C)[C@]23O[C@@H]3[C@@H]1O [Terpendole I] | 66.72 | 80.63 | 141.22 | 87.55 | 89.20 | 95.24 |  |  |  |  |  |  | 
CC[C@H]1CCC[C@H](O[C@H]2CC[C@H](N(C)C)[C@@H](C)O2)[C@@H](C)C(=O)C2=C[C@@H]3[C@@H](C=C[C@@H]4C[C@@H](O[C@@H]5O[C@@H](C)[C@H](OC)[C@@H](OC)[C@H]5OC)C[C@@H]34)[C@@H]2CC(=O)O1 [Spinosyn A] |  |  |  |  |  |  |  |  |  |  |  |  | activity at 2 µg/mL ([1]; Plasmodium falciparum, 3D7, 72 h, P. falciparum, 72 h, parasite screen 2 μg/mL, % growth, replicate 1, read-out: Pf_72h_%Growth_Rep1): 5.81%; activity at 2 µg/mL ([1]; Plasmodium falciparum, 3D7, 72 h, P. falciparum, 72 h, parasite screen 2 μg/mL, % growth, replicate 2, read-out: Pf_72h_%Growth_Rep2): 3.23%; IC50 ([1]; Plasmodium falciparum): > 1 µM; activity at 2 µg/mL ([2]; 3D7, 120 h, P. falciparum, 120 h, parasite screen 2 μg/mL, % growth, replicate 1, read-out: Pf_120h_%Growth_Rep1): 0.89%; activity at 2 µg/mL ([2]; 3D7, 120 h, P. falciparum, 120 h, parasite screen 2 μg/mL, % growth, replicate 2, read-out: Pf_120h_%Growth_Rep2): -4.31%; percent parasite growth at 2 µg/mL [3, 16]: 56.8%; percent parasite growth at 2 µg/mL [3, 17]: 95.1%
CC1(C)CCC[C@]2(C)[C@@H](CO)C(CO)=CC[C@@H]12 [Drimendiol] |  |  |  |  |  |  | 88.42 | 85.66 | 96.59 | 92.13 | 182.34 | 100.93 | 
Cc1cc(O)c(C)c(O)c1C(=O)Oc1c(C)c(C)c(C(=O)Oc2c(C)c(C)c(C(=O)O)c(O)c2C)c(O)c1C [Thielavin A] | 46.40 | 70.42 | 119.92 | 51.57 | 89.38 | 91.04 |  |  |  |  |  |  | IC50 [1]: > 1 µM
CC(C)=C[C@H]1C[C@H](C)[C@]2(CC[C@]3(C)C[C@@H]4C(C)=CC(=O)[C@H]4/C(C=O)=C\C[C@H]32)O1 [Anhydroepiophiobolin A] |  |  |  |  |  |  | 2.50 | 3.83 | -5.12 | 6.51 | 120.33 | 104.77 | 
C/C=C(\C)C(=O)OC[C@H]1O[C@H](O[C@H]2O[C@H](COC(=O)/C(C)=C/C)[C@@H](O)[C@H](O)[C@H]2O[C@@H]2O[C@H](CO)[C@@H](OC(=O)/C(C)=C/C)[C@H](OC(=O)/C(C)=C/C)[C@H]2O)[C@H](O[C@@H]2O[C@H](CO)[C@@H](OC(=O)/C(C)=C/C)[C@H](OC(=O)/C(C)=C/C)[C@H]2O)[C@@H](O)[C@@H]1O [Actinotetraose Hexatiglate] |  |  |  |  |  |  | 45.55 | 47.53 | 16.78 | 21.66 | 97.33 | 100.02 | 1) Growth (%) at 72 h ([1]; P. falciparum, 2 μg/mL, 72 h): 46.54%; 2) Growth (%) at 120 h ([2]; P. falciparum, 2 μg/mL, 120 h): 19.22%; 3) Fold change (72 h/120 h) ([2]; P. falciparum, growth at 72 h / growth at 120 h, 2 μg/mL): 2.4
COc1cc2nccc3c4ccccc4n(c1=O)c23 [BIA-M1940] |  |  |  |  |  |  |  |  |  |  |  |  | Pf_72h_%Growth_Rep1 ([1]; P. falciparum 3D7, 72 h, parasite screen at 2 μg/mL, % growth, replicate 1): 95.54%; Pf_72h_%Growth_Rep2 ([1]; P. falciparum 3D7, 72 h, parasite screen at 2 μg/mL, % growth, replicate 2): 122.74%; Pf_120h_%Growth_Rep1 ([2]; P. falciparum 3D7, 120 h, parasite screen at 2 μg/mL, % growth, replicate 1): 112.19%; Pf_120h_%Growth_Rep2 ([2]; P. falciparum 3D7, 120 h, parasite screen at 2 μg/mL, % growth, replicate 2): 105.38%; Tg_72h_%Growth_Rep1 ([3]; T. gondii, parasite screen at 2 μg/mL, % growth, replicate 1): 156.47%; Tg_72h_%Growth_Rep2 ([3]; T. gondii, parasite screen at 2 μg/mL, % growth, replicate 2): 73.09%
CCCCCCCCCC[C@@H](O)C[C@]1(O)O[C@H](CC(O)C(O)C(O)C(O)C(O)CC(O)CC(O)CC(O)CC(O)C(C)C(O)C(C)C(O)CC(O)C(C)C(O)C(O)C[C@H](C)C[C@H](C)/C=C(C)/C(O)=C2\C(=O)CN(C)C2=O)[C@@H](O)[C@H](O)[C@@H]1O (stereo partly drawn) [Blasticidin A] | 84.79 | 87.65 | 135.50 | 87.28 | 83.39 | 93.60 |  |  |  |  |  |  | 
CCCCCC[C@H]1C(=O)O[C@H](C)[C@H](NC(=O)c2cccc(NC=O)c2O)C(=O)O[C@@H](C)[C@@H]1OC(=O)CC(C)C [Antimycin A1] |  |  |  |  |  |  | 7.57 | 13.46 | -1.25 | 6.08 | 5.65 | 4.89 | 
